The results in this text go back to ChEMBL document CHEMBL1138010, “Discovery of highly potent, selective, orally bioavailable, metabotropic glutamate subtype 5 (mGlu5) receptor antagonists devoid of cytochrome P450 1A2 inhibitory activity” (Bioorg Med Chem Lett, 2004).

Series [1] deals with Metabotropic glutamate receptor 5 (Rattus norvegicus, UniProt P31424). As to the kind of experiment: Binding affinity towards Metabotropic glutamate receptor was determined by displacing [3H]3-methoxy-5-(pyridin-2-ylethynyl)pyridine from rat cortical membranes.
Sequence of Metabotropic glutamate receptor 5 (P31424 whole entry): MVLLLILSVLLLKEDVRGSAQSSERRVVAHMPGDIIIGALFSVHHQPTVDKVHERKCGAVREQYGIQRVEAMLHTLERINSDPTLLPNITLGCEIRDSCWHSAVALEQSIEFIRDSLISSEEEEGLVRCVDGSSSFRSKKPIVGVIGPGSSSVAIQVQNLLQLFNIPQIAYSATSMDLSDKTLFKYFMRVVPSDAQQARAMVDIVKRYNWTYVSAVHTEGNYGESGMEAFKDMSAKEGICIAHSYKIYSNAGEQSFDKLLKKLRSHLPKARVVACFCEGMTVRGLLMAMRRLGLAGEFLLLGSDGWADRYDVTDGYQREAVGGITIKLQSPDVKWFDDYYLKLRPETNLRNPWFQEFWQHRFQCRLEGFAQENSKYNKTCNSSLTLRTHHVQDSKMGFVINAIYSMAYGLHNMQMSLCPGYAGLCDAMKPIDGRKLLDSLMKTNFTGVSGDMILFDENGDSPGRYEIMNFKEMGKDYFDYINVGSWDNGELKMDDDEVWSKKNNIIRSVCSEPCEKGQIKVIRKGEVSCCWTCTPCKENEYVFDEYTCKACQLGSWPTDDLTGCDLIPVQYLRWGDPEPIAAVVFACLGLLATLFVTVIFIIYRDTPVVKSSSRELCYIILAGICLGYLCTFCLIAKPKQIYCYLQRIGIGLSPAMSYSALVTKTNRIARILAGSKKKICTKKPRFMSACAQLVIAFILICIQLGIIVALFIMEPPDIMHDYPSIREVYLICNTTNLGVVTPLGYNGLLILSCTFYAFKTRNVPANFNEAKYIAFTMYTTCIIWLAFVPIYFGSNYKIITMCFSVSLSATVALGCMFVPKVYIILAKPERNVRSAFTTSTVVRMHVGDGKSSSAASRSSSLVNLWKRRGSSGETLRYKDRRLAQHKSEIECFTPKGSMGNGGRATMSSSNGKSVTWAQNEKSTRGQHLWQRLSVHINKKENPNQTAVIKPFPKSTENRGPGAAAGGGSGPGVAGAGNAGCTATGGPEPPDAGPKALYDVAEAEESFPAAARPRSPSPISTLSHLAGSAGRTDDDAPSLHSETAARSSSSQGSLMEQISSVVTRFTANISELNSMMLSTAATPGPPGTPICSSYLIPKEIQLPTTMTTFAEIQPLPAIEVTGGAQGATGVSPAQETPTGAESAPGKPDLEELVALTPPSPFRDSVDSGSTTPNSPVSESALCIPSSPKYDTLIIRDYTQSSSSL
In series [2] the target is T1, Cytochrome P450 1A2 (Homo sapiens, UniProt P05177).
T1 sequence (P05177 whole entry): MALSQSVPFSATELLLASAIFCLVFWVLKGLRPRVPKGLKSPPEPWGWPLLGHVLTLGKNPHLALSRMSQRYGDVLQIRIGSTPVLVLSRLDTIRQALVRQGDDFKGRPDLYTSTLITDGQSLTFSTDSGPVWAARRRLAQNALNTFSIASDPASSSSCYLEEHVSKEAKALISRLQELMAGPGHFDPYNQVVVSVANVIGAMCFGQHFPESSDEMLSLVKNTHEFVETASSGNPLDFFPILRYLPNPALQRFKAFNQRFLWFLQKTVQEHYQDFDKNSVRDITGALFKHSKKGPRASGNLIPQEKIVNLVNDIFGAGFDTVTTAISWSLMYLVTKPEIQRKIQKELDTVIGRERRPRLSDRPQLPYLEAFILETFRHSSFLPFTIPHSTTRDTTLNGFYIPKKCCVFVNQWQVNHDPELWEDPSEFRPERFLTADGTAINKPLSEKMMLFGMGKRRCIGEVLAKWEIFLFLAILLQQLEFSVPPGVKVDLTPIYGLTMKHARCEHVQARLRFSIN
The experiment in a line: Antagonistic activity against recombinant cytochrome P450 1A2. The format is ADME. Conditions: recombinant enzyme.

In series [3] the target is Metabotropic glutamate receptor 5 (Rattus norvegicus) (UniProt P31424). As to the kind of experiment: Antagonistic activity against Metabotropic glutamate receptor 5 in [Ca2+] flux assay using glutamate (10 uM) as agonist. It counts as functional.
Sequence of Metabotropic glutamate receptor 5 (Rattus norvegicus) (P31424 21-1203 limits assumed): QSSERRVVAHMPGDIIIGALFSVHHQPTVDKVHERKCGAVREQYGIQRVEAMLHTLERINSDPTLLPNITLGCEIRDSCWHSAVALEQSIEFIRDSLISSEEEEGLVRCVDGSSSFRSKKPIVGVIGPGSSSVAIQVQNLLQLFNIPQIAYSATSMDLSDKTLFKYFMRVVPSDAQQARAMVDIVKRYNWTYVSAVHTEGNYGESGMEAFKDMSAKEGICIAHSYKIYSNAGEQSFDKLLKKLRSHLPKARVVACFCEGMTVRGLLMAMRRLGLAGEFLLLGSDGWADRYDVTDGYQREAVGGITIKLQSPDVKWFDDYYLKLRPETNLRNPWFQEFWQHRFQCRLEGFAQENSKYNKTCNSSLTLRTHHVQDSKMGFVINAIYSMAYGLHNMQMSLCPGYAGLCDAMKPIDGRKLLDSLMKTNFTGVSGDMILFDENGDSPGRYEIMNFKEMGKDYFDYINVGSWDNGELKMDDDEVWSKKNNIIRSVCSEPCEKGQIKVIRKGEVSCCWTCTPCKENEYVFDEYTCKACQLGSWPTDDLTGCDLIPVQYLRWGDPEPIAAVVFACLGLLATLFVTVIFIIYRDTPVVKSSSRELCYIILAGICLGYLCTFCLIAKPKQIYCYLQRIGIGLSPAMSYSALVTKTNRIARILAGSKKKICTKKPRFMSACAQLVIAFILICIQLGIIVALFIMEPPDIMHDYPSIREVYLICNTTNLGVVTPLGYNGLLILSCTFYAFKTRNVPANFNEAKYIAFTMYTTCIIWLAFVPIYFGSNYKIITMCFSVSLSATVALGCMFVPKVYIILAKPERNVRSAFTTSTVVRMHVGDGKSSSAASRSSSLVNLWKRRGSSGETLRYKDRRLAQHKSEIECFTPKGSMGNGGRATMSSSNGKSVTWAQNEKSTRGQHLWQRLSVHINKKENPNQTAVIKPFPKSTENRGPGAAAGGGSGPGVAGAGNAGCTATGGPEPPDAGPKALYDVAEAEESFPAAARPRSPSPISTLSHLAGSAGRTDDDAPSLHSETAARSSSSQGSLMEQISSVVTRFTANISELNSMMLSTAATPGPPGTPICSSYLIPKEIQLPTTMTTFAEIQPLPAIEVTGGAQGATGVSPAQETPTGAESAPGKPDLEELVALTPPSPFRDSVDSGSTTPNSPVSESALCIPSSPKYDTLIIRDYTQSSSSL
The target is the same in series [4]. The experiment in a line: Percent occupancy of the Metabotropic glutamate receptor 5 by the [3H]3-methoxy-5-(pyridin-2-ylethynyl)pyridine ligand 1 hr post-administration of 10 mg/kg compound ip. The format is organism-based. Also on record: dose 10 mg/kg.
Series [5] in a line: Volume of distribution was determined. The format is ADME, organism-based. Conditions: rat, in vivo.
The target in series [6] is Cytochrome P450 2D6 (Homo sapiens, UniProt P10635). As to the kind of experiment: Antagonistic activity against recombinant cytochrome P450 2D6. Conditions: recombinant enzyme. It counts as ADME.
Sequence of Cytochrome P450 2D6 (P10635 whole entry): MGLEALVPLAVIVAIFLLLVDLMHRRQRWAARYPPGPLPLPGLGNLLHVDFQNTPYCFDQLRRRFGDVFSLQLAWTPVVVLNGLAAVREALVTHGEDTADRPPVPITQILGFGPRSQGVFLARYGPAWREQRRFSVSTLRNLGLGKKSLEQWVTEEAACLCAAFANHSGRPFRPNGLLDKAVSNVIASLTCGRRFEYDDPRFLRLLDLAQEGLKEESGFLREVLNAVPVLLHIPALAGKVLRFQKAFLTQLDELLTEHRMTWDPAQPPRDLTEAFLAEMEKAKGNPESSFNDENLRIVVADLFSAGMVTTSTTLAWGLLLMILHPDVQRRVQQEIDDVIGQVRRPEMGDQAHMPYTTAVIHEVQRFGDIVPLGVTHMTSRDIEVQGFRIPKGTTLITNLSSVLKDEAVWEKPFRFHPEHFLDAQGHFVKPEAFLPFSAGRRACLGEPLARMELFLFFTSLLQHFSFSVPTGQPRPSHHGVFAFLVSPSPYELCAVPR
Series [7] in a line: Half life was determined. The format is ADME. Conditions: rat.
The nature of series [8]: Area under the curve was determined. The format is ADME. Conditions: rat.
Series [9] is described as follows: Plasma clearance was determined. It counts as ADME, organism-based. Conditions: rat.
In series [10] the target is Cytochrome P450 2C19 (Homo sapiens, UniProt P33261). As to the kind of experiment: Antagonistic activity against recombinant cytochrome P450 2C19. As to conditions: recombinant enzyme. The format is ADME.
Sequence of Cytochrome P450 2C19 (P33261 whole entry): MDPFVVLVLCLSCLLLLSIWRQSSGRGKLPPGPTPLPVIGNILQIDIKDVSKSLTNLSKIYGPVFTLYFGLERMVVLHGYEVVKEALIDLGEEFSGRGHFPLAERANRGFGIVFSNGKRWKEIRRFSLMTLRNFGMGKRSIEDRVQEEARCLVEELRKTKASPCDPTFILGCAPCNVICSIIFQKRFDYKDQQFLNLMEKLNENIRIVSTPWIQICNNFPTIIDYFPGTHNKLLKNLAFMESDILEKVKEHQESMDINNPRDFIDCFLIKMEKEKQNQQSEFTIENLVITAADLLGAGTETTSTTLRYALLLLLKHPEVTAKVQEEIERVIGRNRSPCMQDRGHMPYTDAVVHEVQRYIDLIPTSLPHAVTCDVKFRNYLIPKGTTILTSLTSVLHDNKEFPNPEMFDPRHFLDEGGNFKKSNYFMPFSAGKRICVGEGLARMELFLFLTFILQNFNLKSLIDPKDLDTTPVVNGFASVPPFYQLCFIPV
In series [11] the target is Cytochrome P450 2C9 (Homo sapiens, UniProt P11712). The experiment in a line: Antagonistic activity against recombinant cytochrome P450 2C9. The format is ADME. As to conditions: recombinant enzyme.
Sequence of Cytochrome P450 2C9 (P11712 whole entry): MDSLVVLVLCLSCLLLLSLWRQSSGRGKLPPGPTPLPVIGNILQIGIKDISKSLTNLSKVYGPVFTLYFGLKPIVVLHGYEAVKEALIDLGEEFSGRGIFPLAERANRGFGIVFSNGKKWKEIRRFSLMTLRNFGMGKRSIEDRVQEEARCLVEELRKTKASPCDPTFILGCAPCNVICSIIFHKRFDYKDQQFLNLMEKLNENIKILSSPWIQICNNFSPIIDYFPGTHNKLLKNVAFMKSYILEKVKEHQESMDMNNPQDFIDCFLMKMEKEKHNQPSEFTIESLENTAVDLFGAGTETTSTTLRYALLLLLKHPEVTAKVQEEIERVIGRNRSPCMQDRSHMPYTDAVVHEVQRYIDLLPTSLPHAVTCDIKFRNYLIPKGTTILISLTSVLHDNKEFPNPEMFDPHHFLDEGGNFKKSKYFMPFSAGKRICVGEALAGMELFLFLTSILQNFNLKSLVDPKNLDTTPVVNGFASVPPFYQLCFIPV
A short description of series [12]: Oral bioavailability. It counts as ADME, organism-based. Conditions: rat, in vivo.
For series [13], the system named is Rattus norvegicus. As to the kind of experiment: Concentration in rat brain measured at 1 hr post-administration of 10 mg/kg ip. It counts as functional, organism-based. The arrangement: dose 10 mg/kg.
Series [14] addresses Cytochrome P450 3A4 (Homo sapiens, UniProt P08684). As to the kind of experiment: Antagonistic activity against recombinant cytochrome P450 3A4. The format is ADME. Conditions: recombinant enzyme.
Series [15] can be described thus: Oral bioavailability after dosing 2 mg/kg iv and 10 mg/kg po. The format is ADME, organism-based. Conditions: rat, in vivo.
Series [16] can be described thus: Area under the curve after dosing 2 mg/kg iv and 10 mg/kg po. The format is ADME, organism-based. Conditions: rat, in vivo.
Series [17] can be described thus: Volume of distribution after dosing 2 mg/kg iv and 10 mg/kg po. It counts as ADME, organism-based. As to conditions: rat, in vivo.
A short description of series [18]: Plasma clearance after dosing 2 mg/kg iv and 10 mg/kg po. It counts as ADME, organism-based. As to conditions: rat.

Bounds are passed on as bounds.

Sequence of Cytochrome P450 3A4 (P08684 whole entry): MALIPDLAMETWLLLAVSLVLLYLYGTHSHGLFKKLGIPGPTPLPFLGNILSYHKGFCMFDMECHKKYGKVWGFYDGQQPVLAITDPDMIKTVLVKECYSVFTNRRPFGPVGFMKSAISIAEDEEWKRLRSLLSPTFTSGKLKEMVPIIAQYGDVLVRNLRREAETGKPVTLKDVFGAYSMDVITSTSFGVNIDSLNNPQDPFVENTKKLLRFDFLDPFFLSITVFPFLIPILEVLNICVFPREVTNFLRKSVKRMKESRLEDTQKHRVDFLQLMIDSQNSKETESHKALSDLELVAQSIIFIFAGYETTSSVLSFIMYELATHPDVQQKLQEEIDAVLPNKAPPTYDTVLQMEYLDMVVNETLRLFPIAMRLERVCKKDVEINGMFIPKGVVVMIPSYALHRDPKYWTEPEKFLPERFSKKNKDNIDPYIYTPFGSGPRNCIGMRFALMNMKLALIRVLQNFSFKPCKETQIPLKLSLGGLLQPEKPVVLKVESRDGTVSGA

`N#Cc1cccc(-n2nnc(-c3ncc[nH]3)n2)c1` yielded a Ki in series [1] of 34 nM. Besides, the Activity in series [2] is more than 14 µM; in series [3], 77 nM.
With `N#Cc1cccc(-n2nnc(-c3ccccn3)n2)c1`, in [1], affinity was put at a Ki of 102 nM. Further, in series [4], the Occupancy was found to be 90%. The Activity worked out at 3.8 µM in [2] and 73 nM in series [3].
Regarding `Cc1c[nH]c(-c2nnn(-c3cc(F)cc(C#N)c3)n2)n1`, the Vd in series [5] was 0.6 L/kg. Further, the Activity is more than 14 µM in [6]; more than 14 µM in series [2]; 77 nM in [3]; more than 14 µM in series [10]; more than 14 µM in [11]; more than 14 µM in series [14]. The half-life in series [7] was 18 min. The affinity in series [1] corresponds to a Ki of 19 nM. In series [4], this compound came in with an Occupancy of 97%. The AUC in [8] was 3.4 µM·h. In series [9], the clearance was 40 mL/min/kg. Further, the bioavailability in series [12] was 22%. The compound also yielded a Concentration in [13] of 8.1 µM.
For the compound `Cc1ccncc1-c1cc(F)cc(-n2nnc(-c3ncc[nH]3)n2)c1`, in series [1], the Ki was found to be 3.5 nM. This compound also gave an Occupancy in [4] of 29%. Also, the Activity in series [2] came out at 3.5 µM; in series [3] it was 20 nM.
On the same counts, the results for `Fc1cc(Oc2cccnc2)cc(-n2nnc(-c3ncc[nH]3)n2)c1` are 3.2 nM, 69%, 5.1 µM and 9.7 nM.
On the same counts, the results for `N#Cc1cc(F)cc(-n2nnc(-c3ncc[nH]3)n2)c1` are 9.3 nM, 95%, more than 14 µM and 47 nM.
In the case of `N#Cc1cc(F)cc(-n2nnc(-c3ccccn3)n2)c1`, the Activity in series [6] was more than 14 µM; in series [2], 2.3 µM; in series [3], 3.9 nM; in series [10], more than 14 µM; in series [11] it was more than 14 µM; in series [14], more than 14 µM. The compound further returned a bioavailability in [15] of 24%. The compound further came in with an AUC in [16] of 9.6 µM·h. The Vd in series [17] stood at 1.1 L/kg. For the same compound, the clearance in series [18] was found to be 15 mL/min/kg. Moreover, the Concentration in [13] is 9.7 µM.
In the case of `N#Cc1cccc(-n2nnc(-c3nccs3)n2)c1`, the affinity in series [1] corresponds to a Ki of 183 nM. In addition, the Activity turned out to be 1 µM in series [2] and 142 nM in series [3].
Regarding `Cc1ccncc1-c1cc(F)cc(-n2nnc(-c3ccccn3)n2)c1`, the Ki in series [1] was found to be 1.8 nM. In series [4], this compound registered an Occupancy of 95%. Further, the figures for the Activity in series [2] and in series [3] were 0.5 µM and 5.2 nM, respectively.
In [1], `N#Cc1cccc(-n2nnc(-c3cc[nH]n3)n2)c1` returned a Ki of more than 2000 nM. Besides, in series [3], the Activity is more than 2000 nM.
On to `Fc1cc(Oc2cccnc2)cc(-n2nnc(-c3ccccn3)n2)c1`, for which, in series [4], the Occupancy amounted to 90%. Also, the Activity came out at 0.7 µM in series [2] and 6.7 nM in series [3].
On to `N#Cc1cccc(-n2nnc(-c3cscn3)n2)c1`, for which the Ki in [1] is 157 nM. The Activity in series [2] stood at 1.7 µM; in series [3], 148 nM.
`N#Cc1cccc(-n2nnc(-c3c[nH]cn3)n2)c1` displayed a Ki in series [1] of more than 2000 nM. The compound also registered an Activity in series [3] of more than 2000 nM.

Broadly, the Ki is a dissociation constant, usually derived from enzyme kinetics or from competition with a known ligand. The half-life is the time needed for the level to fall by half in the phase considered. A low value points to fast loss. In general, AUC refers to the area under the concentration-time curve, a measure of exposure. As usually defined, the bioavailability is the share of a dose that reaches the circulation, judged against a reference dose that is usually intravenous.
